# Assay results as given in PubChem BioAssay (NCI).
#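 In this assay, cells in 96-well plates receive the compound at five concentrations for 48 hours. Endpoints are linearly interpolated between the surrounding concentrations. GI50: concentration for 50% inhibition of growth. TGI denotes the concentration required for complete inhibition of growth.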
# Assays:
# Test in all cases: inhibition of tumour cell growth, NCI panel, 48 h
# A549 NSCLC = tested on: A549 NSCLC
# RPMI-8226 leukemia = tested on: RPMI-8226 leukemia
# SK-MEL-2 melanoma = tested on: SK-MEL-2 melanoma
# K-562 leukemia = tested on: K-562 leukemia
# SK-MEL-5 melanoma = tested on: SK-MEL-5 melanoma
# 786-0 renal = tested on: 786-0 renal
# COLO 205 colon = tested on: COLO 205 colon
# EKVX NSCLC = tested on: EKVX NSCLC
# MOLT-4 leukemia = tested on: MOLT-4 leukemia
# UACC-62 melanoma = tested on: UACC-62 melanoma
# NCI/ADR-RES ovarian = tested on: NCI/ADR-RES ovarian
# RXF 393 renal = tested on: RXF 393 renal
# OVCAR-5 ovarian = tested on: OVCAR-5 ovarian
# NCI-H522 lung = tested on: NCI-H522 lung
# HCC-2998 colon = tested on: HCC-2998 colon
# OVCAR-8 ovarian = tested on: OVCAR-8 ovarian
# OVCAR-3 ovarian = tested on: OVCAR-3 ovarian
# BT-549 breast = tested on: BT-549 breast
# HCT-15 colon = tested on: HCT-15 colon
# SN12C renal = tested on: SN12C renal
# MALME-3M melanoma = tested on: MALME-3M melanoma
# SK-OV-3 ovarian = tested on: SK-OV-3 ovarian
# UO-31 renal = tested on: UO-31 renal
# MDA-MB-231 breast = tested on: MDA-MB-231 breast
# LOX IMVI melanoma = tested on: LOX IMVI melanoma
# NCI-H23 lung = tested on: NCI-H23 lung
# PC-3 prostate = tested on: PC-3 prostate
# SF-539 CNS = tested on: SF-539 CNS
# SNB-75 CNS = tested on: SNB-75 CNS
# NCI-H226 lung = tested on: NCI-H226 lung
# HT29 colon = tested on: HT29 colon
# MCF7 breast = tested on: MCF7 breast
# NCI-H460 lung = tested on: NCI-H460 lung
# IGROV1 ovarian = tested on: IGROV1 ovarian
# SF-295 CNS = tested on: SF-295 CNS
# OVCAR-4 ovarian = tested on: OVCAR-4 ovarian
# UACC-257 melanoma = tested on: UACC-257 melanoma
# SK-MEL-28 melanoma = tested on: SK-MEL-28 melanoma
# M14 melanoma = tested on: M14 melanoma
# HCT-116 colon = tested on: HCT-116 colon
# HOP-92 NSCLC = tested on: HOP-92 NSCLC
# A498 renal = tested on: A498 renal
# TK-10 renal = tested on: TK-10 renal
# KM12 colon = tested on: KM12 colon
# HOP-62 NSCLC = tested on: HOP-62 NSCLC
# DU-145 prostate = tested on: DU-145 prostate
# HS 578T breast = tested on: HS 578T breast
# SF-268 CNS = tested on: SF-268 CNS
# CCRF-CEM leukemia = tested on: CCRF-CEM leukemia
# T-47D breast = tested on: T-47D breast
# SW-620 colon = tested on: SW-620 colon
# CAKI-1 renal = tested on: CAKI-1 renal
# U251 CNS = tested on: U251 CNS
# SNB-19 CNS = tested on: SNB-19 CNS
compound,measurement,setting,value
COc1ccc(/C(COc2ccc3c(c2)oc(=O)c2cc(OC)ccc23)=N/O)cc1,GI50,A549 NSCLC,7.41 µM
same,TGI,A549 NSCLC,> 100 µM
same,GI50,RPMI-8226 leukemia,5.44 µM
same,TGI,RPMI-8226 leukemia,> 100 µM
same,GI50,SK-MEL-2 melanoma,15.2 µM
same,TGI,SK-MEL-2 melanoma,> 100 µM
same,GI50,K-562 leukemia,5.36 µM
same,TGI,K-562 leukemia,> 100 µM
same,GI50,SK-MEL-5 melanoma,4.27 µM
same,TGI,SK-MEL-5 melanoma,69.4 µM
same,GI50,786-0 renal,14.8 µM
same,TGI,786-0 renal,> 100 µM
same,GI50,COLO 205 colon,3.75 µM
same,TGI,COLO 205 colon,> 100 µM
same,GI50,EKVX NSCLC,23.7 µM
same,TGI,EKVX NSCLC,> 100 µM
same,GI50,MOLT-4 leukemia,5.86 µM
same,TGI,MOLT-4 leukemia,> 100 µM
same,GI50,UACC-62 melanoma,3.94 µM
same,TGI,UACC-62 melanoma,> 100 µM
same,GI50,NCI/ADR-RES ovarian,2.96 µM
same,TGI,NCI/ADR-RES ovarian,9.76 µM
same,GI50,RXF 393 renal,26.8 µM
same,TGI,RXF 393 renal,> 100 µM
same,GI50,OVCAR-5 ovarian,> 100 µM
same,TGI,OVCAR-5 ovarian,> 100 µM
same,GI50,NCI-H522 lung,3.55 µM
same,TGI,NCI-H522 lung,19.1 µM
same,GI50,HCC-2998 colon,7.64 µM
same,TGI,HCC-2998 colon,> 100 µM
same,GI50,OVCAR-8 ovarian,11.4 µM
same,TGI,OVCAR-8 ovarian,> 100 µM
same,GI50,OVCAR-3 ovarian,3.68 µM
same,TGI,OVCAR-3 ovarian,> 100 µM
same,GI50,BT-549 breast,15 µM
same,TGI,BT-549 breast,> 100 µM
same,GI50,HCT-15 colon,5.16 µM
same,TGI,HCT-15 colon,> 100 µM
same,GI50,SN12C renal,13.6 µM
same,TGI,SN12C renal,> 100 µM
same,GI50,MALME-3M melanoma,65.7 µM
same,TGI,MALME-3M melanoma,> 100 µM
same,GI50,SK-OV-3 ovarian,37.4 µM
same,TGI,SK-OV-3 ovarian,> 100 µM
same,GI50,UO-31 renal,17.1 µM
same,TGI,UO-31 renal,> 100 µM
same,GI50,MDA-MB-231 breast,10.8 µM
same,TGI,MDA-MB-231 breast,> 100 µM
same,GI50,LOX IMVI melanoma,8.12 µM
same,TGI,LOX IMVI melanoma,67.2 µM
same,GI50,NCI-H23 lung,20.5 µM
same,TGI,NCI-H23 lung,> 100 µM
same,GI50,PC-3 prostate,7.28 µM
same,TGI,PC-3 prostate,> 100 µM
same,GI50,SF-539 CNS,8.33 µM
same,TGI,SF-539 CNS,51.3 µM
same,GI50,SNB-75 CNS,2.73 µM
same,TGI,SNB-75 CNS,9.98 µM
same,GI50,NCI-H226 lung,41.7 µM
same,TGI,NCI-H226 lung,> 100 µM
same,GI50,HT29 colon,3.72 µM
same,TGI,HT29 colon,74.8 µM
same,GI50,MCF7 breast,4.16 µM
same,TGI,MCF7 breast,> 100 µM
same,GI50,NCI-H460 lung,3.97 µM
same,TGI,NCI-H460 lung,> 100 µM
same,GI50,IGROV1 ovarian,4.87 µM
same,TGI,IGROV1 ovarian,> 100 µM
same,GI50,SF-295 CNS,6.2 µM
same,TGI,SF-295 CNS,> 100 µM
same,GI50,OVCAR-4 ovarian,24.7 µM
same,TGI,OVCAR-4 ovarian,> 100 µM
same,GI50,UACC-257 melanoma,24.8 µM
same,TGI,UACC-257 melanoma,> 100 µM
same,GI50,SK-MEL-28 melanoma,4.86 µM
same,TGI,SK-MEL-28 melanoma,> 100 µM
same,GI50,M14 melanoma,4.29 µM
same,TGI,M14 melanoma,> 100 µM
same,GI50,HCT-116 colon,4.18 µM
same,TGI,HCT-116 colon,> 100 µM
same,GI50,HOP-92 NSCLC,80.9 µM
same,TGI,HOP-92 NSCLC,> 100 µM
same,GI50,A498 renal,3.22 µM
same,TGI,A498 renal,52.2 µM
same,GI50,TK-10 renal,8.14 µM
same,TGI,TK-10 renal,> 100 µM
same,GI50,KM12 colon,4.67 µM
same,TGI,KM12 colon,> 100 µM
same,GI50,HOP-62 NSCLC,8.86 µM
same,TGI,HOP-62 NSCLC,> 100 µM
same,GI50,DU-145 prostate,29.2 µM
same,TGI,DU-145 prostate,> 100 µM
same,GI50,HS 578T breast,10.6 µM
same,TGI,HS 578T breast,> 100 µM
same,GI50,SF-268 CNS,8.33 µM
same,TGI,SF-268 CNS,> 100 µM
same,GI50,CCRF-CEM leukemia,8.05 µM
same,TGI,CCRF-CEM leukemia,> 100 µM
same,GI50,T-47D breast,6.9 µM
same,TGI,T-47D breast,> 100 µM
same,GI50,SW-620 colon,4.34 µM
same,TGI,SW-620 colon,> 100 µM
same,GI50,CAKI-1 renal,6.4 µM
same,TGI,CAKI-1 renal,> 100 µM
same,GI50,U251 CNS,5.08 µM
same,TGI,U251 CNS,> 100 µM
same,GI50,SNB-19 CNS,4.34 µM
same,TGI,SNB-19 CNS,> 100 µM
